# Molecular target: Protein kinase C theta type (Homo sapiens, UniProt Q04759)
# Test: Inhibition of PKCtheta (unknown origin) by HTRF assay
# Conditions: not given
# Sequence of Protein kinase C theta type (Q04759 whole entry): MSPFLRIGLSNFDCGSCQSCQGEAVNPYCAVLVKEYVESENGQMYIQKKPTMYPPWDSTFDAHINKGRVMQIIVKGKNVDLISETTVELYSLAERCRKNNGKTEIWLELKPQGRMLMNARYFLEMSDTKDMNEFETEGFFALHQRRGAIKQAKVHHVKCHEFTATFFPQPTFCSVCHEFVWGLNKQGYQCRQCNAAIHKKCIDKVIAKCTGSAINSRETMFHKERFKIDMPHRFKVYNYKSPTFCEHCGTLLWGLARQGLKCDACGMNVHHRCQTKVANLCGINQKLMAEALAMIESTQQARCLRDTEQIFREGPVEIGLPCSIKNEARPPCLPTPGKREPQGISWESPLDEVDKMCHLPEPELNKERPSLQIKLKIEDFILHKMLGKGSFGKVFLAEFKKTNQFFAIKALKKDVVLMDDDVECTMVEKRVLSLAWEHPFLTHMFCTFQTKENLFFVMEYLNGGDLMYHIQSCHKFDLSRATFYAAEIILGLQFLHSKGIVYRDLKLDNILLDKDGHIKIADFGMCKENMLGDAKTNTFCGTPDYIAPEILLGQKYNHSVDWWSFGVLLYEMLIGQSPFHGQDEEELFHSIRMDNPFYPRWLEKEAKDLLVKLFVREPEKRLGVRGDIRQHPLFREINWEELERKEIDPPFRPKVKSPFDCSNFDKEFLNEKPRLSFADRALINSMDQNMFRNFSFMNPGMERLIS
row,SMILES,IC50 [nM]
1,O=C1NC(O)c2c1c1c3ccccc3[nH]c1c1[nH]c3ccccc3c21 (configuration not stated),> 2500
2,C[C@@H]1O[C@@H](n2c3ccccc3c3c4c(c5c6ccccc6[nH]c5c32)CNC4=O)[C@H](O)[C@H](O)[C@H]1O,> 2500
3,C[C@@H]1O[C@@H](n2c3ccccc3c3c4c(c5c6ccccc6[nH]c5c32)CNC4=O)C[C@@H](N)[C@H]1O,260
4,CC(=O)N[C@@H]1C[C@H](n2c3ccccc3c3c4c(c5c6ccccc6[nH]c5c32)CNC4=O)O[C@@H](C)[C@@H]1O,> 2500
5,CC(=O)N[C@H]1C[C@H]2O[C@@](C)([C@@H]1O)n1c3ccccc3c3c4c(c5c6ccccc6n2c5c31)C(=O)NC4,270
6,CC(=O)N[C@@H]1C[C@H](n2c3ccccc3c3c4c(c5c6cc(O)ccc6[nH]c5c32)CNC4=O)O[C@@H](C)[C@@H]1O,> 2500
7,C[C@H]1O[C@@H]2C[C@](O)([C@H]1O)n1c3ccccc3c3c4c(c5c6cc(O)ccc6n2c5c31)C(=O)NC4,> 2500
8,COC1NC(=O)c2c1c1c3ccccc3[nH]c1c1[nH]c3ccc(O)cc3c21 (configuration not stated),> 2500
9,O=C1NCc2c1c1c3ccccc3[nH]c1c1[nH]c3ccc(O)cc3c21,> 2500
10,CC(=O)N[C@@H]1C[C@H](n2c3ccc(O)cc3c3c4c(c5c6ccccc6[nH]c5c32)CNC4=O)O[C@@H](C)[C@@H]1O,280
11,C[C@@H]1O[C@@H](n2c3ccc(O)cc3c3c4c(c5c6ccccc6[nH]c5c32)CNC4=O)C[C@@H](N)[C@H]1O,> 2500
12,C[C@@H]1O[C@@H]2C[C@](O)([C@H]1O)n1c3ccccc3c3c4c(c5c6cc(O)ccc6n2c5c31)C(=O)NC4,> 2500
13,O=C1NCc2c1c1c3cc(O)ccc3[nH]c1c1[nH]c3ccccc3c21,2110
14,C[C@@H]1O[C@@H](n2c3ccccc3c3c4c(c5c6ccccc6[nH]c5c32)C(=O)NC4=O)[C@H](O)[C@H](O)[C@H]1O,> 2500
15,C[C@@H]1O[C@@H](n2c3ccccc3c3c4c(c5c6ccccc6[nH]c5c32)CNC4=O)C[C@@H](NC=O)[C@H]1O,> 2500
16,CNC(=O)C[C@H]1O[C@@](C)(C(=O)OC)n2c3ccccc3c3c4c(c5c6ccccc6n1c5c32)C(=O)NC4,> 2500
17,CO[C@@H]1[C@H](N(C)C=O)C[C@H]2O[C@]1(C)n1c3ccccc3c3c4c(c5c6ccccc6n2c5c31)C(=O)NC4,250
18,C[C@@H]1O[C@@H](n2c3ccc(O)cc3c3c4c(c5c6ccccc6[nH]c5c32)CNC4=O)[C@H](O)[C@H](O)[C@H]1O,> 2500
19,COC(=O)[C@@]1(OC)C[C@H]2O[C@]1(C)n1c3ccccc3c3c4c(c5c6ccccc6n2c5c31)C(=O)NC4,520
20,C[C@]12O[C@H](C[C@]1(O)C(=O)O)n1c3ccccc3c3c4c(c5c6ccccc6n2c5c31)C(=O)NC4=O,1860
21,CO[C@H]1NC(=O)c2c1c1c3ccccc3[nH]c1c1c2c2ccccc2n1[C@@H]1O[C@@H](C)[C@H](O)[C@@H](O)[C@H]1O,> 2500
22,CO[C@H]1NC(=O)c2c1c1c3ccccc3n3c1c1c2c2ccccc2n1[C@@H]1O[C@@]3(C)[C@H](OC)[C@@H](O)[C@H]1O,890

row,SMILES,IC50 [nM]
1,CNn1c2ccccc2c2c3c(c4c5ccccc5[nH]c4c21)C(=O)NC3,> 2500
2,C[C@]12O[C@H](C[C@]1(O)C(=O)O)n1c3ccccc3c3c4c(c5c6ccccc6n2c5c31)CNC4=O,5590
3,CO[C@@H]1[C@H](NC=O)C[C@H]2O[C@]1(C)n1c3ccccc3c3c4c(c5c6ccccc6n2c5c31)C(=O)NC4,> 2500
4,CO[C@@H]1C(=O)C[C@H]2O[C@]1(C)n1c3ccccc3c3c4c(c5c6ccccc6n2c5c31)C(=O)NC4,> 2500
5,C[C@@H]1O[C@@H](n2c3ccccc3c3c4c(c5c6ccccc6[nH]c5c32)C(=O)NC4=O)C[C@@H](NC=O)[C@H]1O,4760
6,CO[C@@H]1[C@H](N)C[C@H]2O[C@]1(C)n1c3ccccc3c3c4c(c5c6ccccc6n2c5c31)C(=O)NC4=O,36
7,CO[C@H]1[C@@H](N2CC[C@@H](O)C2=O)C[C@@H]2O[C@@]1(C)n1c3ccccc3c3c4c(c5c6ccccc6n2c5c31)C(=O)NC4,170
8,C[C@@H]1O[C@@H](n2c3ccccc3c3c4c(c5c6ccccc6[nH]c5c32)C(=O)NC4=O)C[C@@H](N)[C@H]1O,1180
9,CO[C@@H]1[C@@H](O)[C@@H](O)[C@H]2O[C@]1(C)n1c3ccccc3c3c4c(c5c6ccccc6n2c5c31)C(=O)NC4=O,1420
10,CO[C@@H]1[C@H](NC(C)=O)C[C@H]2O[C@]1(C)n1c3ccccc3c3c4c(c5c6ccccc6n2c5c31)C(=O)NC4,38
11,COC(=O)[C@H]1C[C@H]2O[C@]1(C)n1c3ccccc3c3c4c(c5c6ccccc6n2c5c31)C(=O)NC4,1680
12,CO[C@@H]1[C@H](NC(=O)C(=O)c2c[nH]c3ccccc23)C[C@H]2O[C@]1(C)n1c3ccccc3c3c4c(c5c6ccccc6n2c5c31)C(=O)NC4,1790
13,CC(=O)N[C@@H]1C[C@H](n2c3ccccc3c3c4c(c5c6ccccc6[nH]c5c32)C(=O)NC4=O)O[C@@H](C)[C@@H]1O,> 2500
14,C[C@@H]1O[C@@H]2C[C@](O)([C@H]1O)n1c3ccccc3c3c4c(c5c6ccccc6n2c5c31)C(=O)NC4,1910
15,COc1cc(/C=C(/C(N)=O)n2c3ccccc3c3c4c(c5c6ccccc6[nH]c5c32)CNC4=O)ccc1O,> 2500
16,CO[C@@H]1/C(=N/O)C[C@H]2O[C@]1(C)n1c3ccccc3c3c4c(c5c6ccccc6n2c5c31)C(=O)NC4,> 2500
17,CO[C@@H]1[C@@H](O)[C@@H](O)[C@H]2O[C@]1(C)n1c3ccccc3c3c4c(c5c6ccccc6n2c5c31)C(=O)N[C@H]4O,2250
18,CO[C@@H]1[C@@H](O)[C@@H](O)[C@H]2O[C@]1(C)n1c3ccccc3c3c4c(c5c6ccccc6n2c5c31)C(=O)NC4,1010
19,CO[C@@H]1[C@H](O)C[C@H]2O[C@]1(C)n1c3ccccc3c3c4c(c5c6ccccc6n2c5c31)C(=O)NC4,1300
20,C[C@]12O[C@H](C[C@@H](O)[C@H]1O)n1c3ccccc3c3c4c(c5c6ccccc6n2c5c31)CNC4=O,600
21,CO[C@@H]1[C@@H](O)C[C@H]2O[C@]1(C)n1c3ccccc3c3c4c(c5c6ccccc6n2c5c31)C(=O)NC4,480
22,CN[C@]1(C(=O)OC)C[C@H]2O[C@]1(C)n1c3ccccc3c3c4c(c5c6ccccc6n2c5c31)C(=O)NC4,> 2500

row,SMILES,IC50 [nM]
1,CO[C@@H]1[C@H](N(C)C(C)=O)C[C@H]2O[C@]1(C)n1c3ccccc3c3c4c(c5c6ccccc6n2c5c31)C(=O)NC4,170
2,CO[C@@H]1[C@@H](O)[C@@H](O)[C@H]2O[C@]1(C)n1c3ccccc3c3c4c(c5c6ccccc6n2c5c31)C(=O)N[C@@H]4O,> 2500
3,CO[C@@H]1C(C)(O)O[C@@H]2C[C@@]1(OC)n1c3ccccc3c3c4c(c5c6ccccc6n2c5c31)C(=O)NC4 (some centres not stated),> 2500
4,CO[C@@H]1[C@H](N(C)C(C)=O)C[C@H]2O[C@]1(C)n1c3ccccc3c3c4c(c5c6ccccc6n2c5c31)C(=O)NC4=O,50
5,CC(=O)N[C@H]1C[C@H](n2c3ccccc3c3c4c(c5c6ccccc6[nH]c5c32)CNC4=O)O[C@@H](C)[C@@H]1O,1050
6,COC(=O)c1cccc2c1NC1(C[C@H]3O[C@]1(C)n1c4ccccc4c4c5c(c6c7ccccc7n3c6c41)C(=O)NC5)C(=O)O2 (some centres not stated),> 2500
7,C[C@@H]1O[C@@H](n2c3ccccc3c3c4c(c5c6ccccc6[nH]c5c32)[C@H](O)NC4=O)[C@H](O)[C@H](O)[C@H]1O,> 2500
8,CN1Cc2c(c3c4ccccc4[nH]c3c3[nH]c4ccccc4c23)C1=O,> 2500
9,COC1=C(C)O[C@@H]2C[C@@]1(OC)n1c3ccccc3c3c4c(c5c6ccccc6n2c5c31)C(=O)NC4,370
10,C[C@H]1NC(=O)c2c1c1c3ccccc3[nH]c1c1[nH]c3ccccc3c21,> 2500
11,C[C@H]1O[C@@H]2C[C@](O)([C@@H]1O)n1c3ccccc3c3c4c(c5c6ccccc6n2c5c31)C(=O)NC4,> 2500
12,CO[C@H]1C(=O)C[C@H]2O[C@]1(C)n1c3ccccc3c3c4c(c5c6ccccc6n2c5c31)C(=O)NC4,560
13,CO[C@@H]1[C@H](N(C)C(N)=O)C[C@H]2O[C@]1(C)n1c3ccccc3c3c4c(c5c6ccccc6n2c5c31)C(=O)NC4,400
14,CO[C@@H]1[C@H](O)[C@H](O)[C@H](C)O[C@H]1n1c2ccccc2c2c3c(c4c5ccccc5[nH]c4c21)CNC3=O,9430
15,C[C@@H]1O[C@@H](n2c3ccccc3c3c4c(c5c6ccccc6[nH]c5c32)CNC4=O)C[C@@H](N)[C@H]1OC(O)C1CO1 (some centres not stated),5750
16,CO[C@@H]1[C@@H](O)[C@@H](O)[C@H]2O[C@]1(C)n1c3ccccc3c3c4c(c5c6ccccc6n2c5c31)C(=O)N[C@H]4OC,> 2500
17,COC1NC(=O)c2c1c1c3ccccc3[nH]c1c1[nH]c3ccccc3c21 (configuration not stated),> 2500
18,CN[C@@H]1C[C@H]2O[C@@](C)([C@@H]1OC)n1c3ccccc3c3c4c(c5c6ccccc6n2c5c31)C(=O)NC4=O (stereo in doubt; 14),17
19,O=C1NC(=O)c2c1c1c3ccccc3[nH]c1c1[nH]c3ccccc3c21 [STAUROSPORINE AGLYCON],> 2500
20,O=C1NCc2c1c1c3ccccc3[nH]c1c1[nH]c3ccccc3c21 [STAUROSPORINONE],> 2500

# Tested on: BXPC-3
# Test: Cytotoxicity in human BXPC-3 cells assessed as reduction in cell viability incubated for 24 hrs by CCK8 assay
# Type: functional, cell-based
# Conditions: BXPC-3, 24 h
row,SMILES,IC50 [nM]
1,CN1CCN(c2nc(C3=C(c4c[nH]c5ccccc45)C(=O)NC3=O)c3ccccc3n2)CC1 [SOTRASTAURIN],> 3200

# Tested on: ASPC1
# Test: Cytotoxicity in human ASPC1 cells assessed as reduction in cell viability incubated for 24 hrs by CCK8 assay
# Type: functional, cell-based
# Conditions: ASPC1, 24 h
row,SMILES,IC50 [nM]
1,CN1CCN(c2nc(C3=C(c4c[nH]c5ccccc45)C(=O)NC3=O)c3ccccc3n2)CC1 [SOTRASTAURIN],> 3200

# Tested on: A549
# Test: Cytotoxicity in human A549 cells assessed as reduction in cell viability incubated for 24 hrs by CCK8 assay
# Type: functional, cell-based
# Conditions: A549, 24 h
row,SMILES,IC50 [nM]
1,CN1CCN(c2nc(C3=C(c4c[nH]c5ccccc45)C(=O)NC3=O)c3ccccc3n2)CC1 [SOTRASTAURIN],> 3200

# Tested on: NCI-H1299
# Test: Cytotoxicity in human NCI-H1299 cells assessed as reduction in cell viability incubated for 24 hrs by CCK8 assay
# Type: functional, cell-based
# Conditions: NCI-H1299, 24 h
row,SMILES,IC50 [nM]
1,CN1CCN(c2nc(C3=C(c4c[nH]c5ccccc45)C(=O)NC3=O)c3ccccc3n2)CC1 [SOTRASTAURIN],> 3200

# Tested on: NCI-H1975
# Test: Cytotoxicity in human NCI-H1975 cells assessed as reduction in cell viability incubated for 24 hrs by CCK8 assay
# Type: functional, cell-based
# Conditions: NCI-H1975, 24 h
row,SMILES,IC50 [nM]
1,CN1CCN(c2nc(C3=C(c4c[nH]c5ccccc45)C(=O)NC3=O)c3ccccc3n2)CC1 [SOTRASTAURIN],> 3200

# Tested on: PC-9
# Test: Cytotoxicity in human PC-9 cells assessed as reduction in cell viability incubated for 24 hrs by CCK8 assay
# Type: functional, cell-based
# Conditions: PC-9, 24 h
row,SMILES,IC50 [nM]
1,CN1CCN(c2nc(C3=C(c4c[nH]c5ccccc45)C(=O)NC3=O)c3ccccc3n2)CC1 [SOTRASTAURIN],> 3200

# Tested on: RKO
# Test: Cytotoxicity in human RKO cells assessed as reduction in cell viability incubated for 24 hrs by CCK8 assay
# Type: functional, cell-based
# Conditions: not given
row,SMILES,IC50 [nM]
1,CN1CCN(c2nc(C3=C(c4c[nH]c5ccccc45)C(=O)NC3=O)c3ccccc3n2)CC1 [SOTRASTAURIN],> 3200

# Tested on: MGC-803
# Test: Cytotoxicity in human MGC-803 cells assessed as reduction in cell viability incubated for 24 hrs by CCK8 assay
# Type: functional, cell-based
# Conditions: MGC-803, 24 h
row,SMILES,IC50 [nM]
1,CN1CCN(c2nc(C3=C(c4c[nH]c5ccccc45)C(=O)NC3=O)c3ccccc3n2)CC1 [SOTRASTAURIN],> 3200
